# Data as given in PubChem BioAssay AID2060483 (Molecular Pharmacology Branch, DTP, NCI, 2025).
# Tested on: K24384-001-R-PDC complex spheroids, viability
# Assay: Anticancer human tumor K24384-001-R-PDC patient-derived pancreatic adenocarcinoma cell line growth inhibition [GQUAD]
# Conditions: for IC50: curve of first compound; for viability, T/C: stronger effect = lower value
# Summary of the method: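 Viability of tumor cells grown as complex spheroids with endothelial and stromal cells, exposed to drug combinations. Top concentration at or near clinical Cmax (else 10 microM), diluted in half-log increments.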
# 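Further: spheroids exposed to compounds for seven days.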
compound,measurement,setting,value
CC(=O)O[C@H]1C(=O)[C@@]2(C)[C@H]([C@H](OC(=O)c3ccccc3)[C@]3(O)C[C@H](OC(=O)[C@H](O)[C@@H](NC(=O)c4ccccc4)c4ccccc4)C(C)=C1C3(C)C)[C@]1(OC(C)=O)CO[C@@H]1C[C@@H]2O + Cc1cnc(CNC(=O)c2c(=O)c3ccc(N4CCCN(C)CC4)nc3n3c2sc2ccccc23)cn1,IC50,second compound 0.0316 µM,37.4 nM
same,IC50,second compound 0.1 µM,< 31.6 nM
same,IC50,second compound 0.316 µM,< 31.6 nM
same,IC50,second compound 1 µM,< 31.6 nM
same,IC50,second compound 3.16 µM,< 31.6 nM
same,IC50,second compound 10 µM,< 31.6 nM
same,"viability, T/C","second compound 0.0316 µM, first compound 0.0316 µM",53.4%
same,"viability, T/C","second compound 0.0316 µM, first compound 0.1 µM",27.2%
same,"viability, T/C","second compound 0.0316 µM, first compound 0.316 µM",38.1%
same,"viability, T/C","second compound 0.0316 µM, first compound 1 µM",23.7%
same,"viability, T/C","second compound 0.0316 µM, first compound 3.16 µM",29.2%
same,"viability, T/C","second compound 0.0316 µM, first compound 10 µM",31.1%
same,"viability, T/C","second compound 0.1 µM, first compound 0.0316 µM",47.4%
same,"viability, T/C","second compound 0.1 µM, first compound 0.1 µM",35.2%
same,"viability, T/C","second compound 0.1 µM, first compound 0.316 µM",30.4%
same,"viability, T/C","second compound 0.1 µM, first compound 1 µM",31.8%
same,"viability, T/C","second compound 0.1 µM, first compound 3.16 µM",29.5%
same,"viability, T/C","second compound 0.1 µM, first compound 10 µM",36.8%
same,"viability, T/C","second compound 0.316 µM, first compound 0.0316 µM",47%
same,"viability, T/C","second compound 0.316 µM, first compound 0.1 µM",39.9%
same,"viability, T/C","second compound 0.316 µM, first compound 0.316 µM",36.5%
same,"viability, T/C","second compound 0.316 µM, first compound 1 µM",29.9%
same,"viability, T/C","second compound 0.316 µM, first compound 3.16 µM",39.1%
same,"viability, T/C","second compound 0.316 µM, first compound 10 µM",34.3%
same,"viability, T/C","second compound 1 µM, first compound 0.0316 µM",32.4%
same,"viability, T/C","second compound 1 µM, first compound 0.1 µM",36.2%
same,"viability, T/C","second compound 1 µM, first compound 0.316 µM",26.6%
same,"viability, T/C","second compound 1 µM, first compound 1 µM",37.4%
same,"viability, T/C","second compound 1 µM, first compound 3.16 µM",41.9%
same,"viability, T/C","second compound 1 µM, first compound 10 µM",34.4%
same,"viability, T/C","second compound 3.16 µM, first compound 0.0316 µM",31.9%
same,"viability, T/C","second compound 3.16 µM, first compound 0.1 µM",33.5%
same,"viability, T/C","second compound 3.16 µM, first compound 0.316 µM",32.6%
same,"viability, T/C","second compound 3.16 µM, first compound 1 µM",28.9%
same,"viability, T/C","second compound 3.16 µM, first compound 3.16 µM",32.5%
same,"viability, T/C","second compound 3.16 µM, first compound 10 µM",36.5%
same,"viability, T/C","second compound 10 µM, first compound 0.0316 µM",0.14%
same,"viability, T/C","second compound 10 µM, first compound 0.1 µM",0.18%
same,"viability, T/C","second compound 10 µM, first compound 0.316 µM",0.21%
same,"viability, T/C","second compound 10 µM, first compound 1 µM",0.18%
same,"viability, T/C","second compound 10 µM, first compound 3.16 µM",0.19%
same,"viability, T/C","second compound 10 µM, first compound 10 µM",0.2%
